# Results published in patent publication US20250230193A1, “CYCLIC COMPOUND HAVING SELECTIVE KRAS INHIBITORY EFFECT ON HRAS AND NRAS” (CHUGAI SEIYAKU KABUSHIKI KAISHA, priority 2022, published 2025).
# Where a SMILES comes first, the peptide text is derived from it. Bridges are numbered along the chain shown (N, C = ends). [ ]: non-standard residue; d: D form. The star is where a group is joined. hPhe(3-Cl-4-CF3) = N[C@@H](CCc1ccc(C(F)(F)F)c(Cl)c1)C(=O)O; NMePhe(4-Me) = CN[C@@H](Cc1ccc(C)cc1)C(=O)O; NMeGly(cPent) = CN[C@H](C(=O)O)C1CCCC1; NMeD = CN[C@@H](CC(=O)O)C(=O)O; NMeL = CN[C@@H](CC(C)C)C(=O)O; Morpholide = C1CN(*)CCO1; Ac5c = NC1(C(=O)O)CCCC1; Sar = CNCC(=O)O
# Experiments:
# [1] = target: GDP-bound NRAS wild-type protein (Homo sapiens, UniProt P01111); experiment: Binding to NRAS by surface plasmon resonance (SPR), Single Cycle Kinetics; details: SPR; for NRAS/KRAS (ratio of KD value with respect to NRAS to KD value with respect to KRAS): GDP-bound NRAS wild-type vs GDP-bound KRAS wild-type
# Sequence of GDP-bound NRAS wild-type protein (P01111 whole entry): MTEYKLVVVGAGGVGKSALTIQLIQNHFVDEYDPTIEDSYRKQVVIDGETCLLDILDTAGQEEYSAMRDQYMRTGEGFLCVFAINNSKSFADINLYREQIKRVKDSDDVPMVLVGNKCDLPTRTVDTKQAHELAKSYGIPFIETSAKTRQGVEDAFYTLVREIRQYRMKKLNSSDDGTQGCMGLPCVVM
# [2] = target: GDP-bound HRAS wild-type protein (Homo sapiens, UniProt P01112); experiment: Binding to HRAS by surface plasmon resonance (SPR), Single Cycle Kinetics; details: SPR; for HRAS/KRAS (ratio of KD value with respect to HRAS to KD value with respect to KRAS): GDP-bound HRAS wild-type vs GDP-bound KRAS wild-type
# Sequence of GDP-bound HRAS wild-type protein (P01112 whole entry): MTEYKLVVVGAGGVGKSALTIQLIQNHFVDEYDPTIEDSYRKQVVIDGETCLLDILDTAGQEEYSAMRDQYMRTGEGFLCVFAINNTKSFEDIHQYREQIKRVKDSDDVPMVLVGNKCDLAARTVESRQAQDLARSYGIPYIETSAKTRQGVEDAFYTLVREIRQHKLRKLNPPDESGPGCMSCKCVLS
smiles,measurement,setting,value
CCO[C@@H]1C[C@H]2C(=O)NC3(CCC3)C(=O)N(C)[C@@H](C3CCCC3)C(=O)N(C)[C@H](C(=O)N(C)C)CC(=O)N(CC)[C@@H](CC(C)C)C(=O)N[C@@H]([C@@H](C)CC)C(=O)N(C)CC(=O)N(C)[C@H]3CC(C)=C(C)CN(C3=O)[C@@H](Cc3ccc(C(F)(F)F)cc3)C(=O)N(C)CC(=O)N[C@@H](CCc3cc(F)c(C(F)(F)F)c(F)c3)C(=O)N2C1 [PP1051],NRAS/KRAS (ratio of KD value with respect to NRAS to KD value with respect to KRAS),[1]; KD ratio,C (A compound having a KD ratio of 0.1 or more and less than 3 is denoted as C)
same,HRAS/KRAS (ratio of KD value with respect to HRAS to KD value with respect to KRAS),[2]; KD ratio,C (A compound having a KD ratio of 0.1 or more and less than 3 is denoted as C)
CC[C@H](C)[C@@H]1NC(=O)[C@H](CC(C)C)N(C)C(=O)C[C@@H](C(=O)N2CCOCC2)N(C)C(=O)[C@H](C2CCCC2)N(C)C(=O)C2(CCCC2)NC(=O)[C@@H]2CCCN2C(=O)[C@H](CCc2ccc(C(F)(F)F)c(Cl)c2)NC(=O)CN(C)C(=O)[C@H](Cc2ccc(C)cc2)N(C)C(=O)CN(C)C(=O)CN(C)C1=O [PP0018] ([NMeL]I[Sar][Sar][NMePhe(4-Me)][Sar][hPhe(3-Cl-4-CF3)]P[Ac5c][NMeGly(cPent)][NMeD]-Morpholide; lactam N-11),NRAS/KRAS (ratio of KD for GDP-bound NRAS wild-type to KD for KRAS),[1]; KD ratio NRAS/KRAS,C (A compound having a KD ratio of 0.1 or more and less than 3 is denoted as C)
same,HRAS/KRAS (ratio of KD for GDP-bound HRAS wild-type to KD for KRAS),[2]; KD ratio HRAS/KRAS,C (A compound having a KD ratio of 0.1 or more and less than 3 is denoted as C)
CCOC[C@H]1C(=O)N[C@@H]([C@@H](C)OCC)C(=O)N(C)CC(=O)N(C)[C@H]2C/C=C\CCN(C2=O)[C@@H](Cc2ccc(C)cc2)C(=O)N(C)CC(=O)N[C@@H](CCc2cc(F)c(C(F)(F)F)c(F)c2)C(=O)N2C[C@@H](C)C[C@H]2C(=O)NC2(CC(C)(C)C2)C(=O)N(C)[C@@H](C2CCCC2)C(=O)N(C)[C@H](C(=O)N(C)CC)CC(=O)N1C [PP2422],NRAS/KRAS (ratio of KD value with respect to NRAS to KD value with respect to KRAS),[1],A (a compound having 10 or more and less than 20 is denoted as A)
same,HRAS/KRAS (ratio of KD value with respect to HRAS to KD value with respect to KRAS),[2],A (a compound having 10 or more and less than 20 is denoted as A)
CCO[C@@H]1C[C@H]2C(=O)NC3(CCC3)C(=O)N(C)[C@@H](C3CCCC3)C(=O)N(CC)[C@H](C(=O)N3CCOCC3)CC(=O)N(C)[C@@H](Cc3ccccc3)C(=O)N[C@@H]([C@@H](C)CC)C(=O)N(C)CC(=O)N(C)[C@H]3CCCCCN(C3=O)[C@@H](Cc3ccc(C(F)(F)F)cc3)C(=O)N(C)CC(=O)N[C@@H](CCc3cc(F)c(C(F)(F)F)c(F)c3)C(=O)N2C1 [PP0950],NRAS/KRAS (ratio of KD value with respect to NRAS to KD value with respect to KRAS),[1]; KD ratio,A (a compound having 10 or more and less than 20 is denoted as A)
same,HRAS/KRAS (ratio of KD value with respect to HRAS to KD value with respect to KRAS),[2]; KD ratio,B (a compound having 3 or more and less than 10 is denoted as B)
CCO[C@@H]1C[C@H]2C(=O)NC3(CC(C)(C)C3)C(=O)N(C)[C@@H](C(CC)CC)C(=O)N(C)[C@H](C(=O)N(C)C)CC(=O)N(C)[C@@H](CC(C)C)C(=O)N[C@@H]([C@@H](C)CC)C(=O)N(C)CC(=O)N(C)[C@H]3C/C=C\CCN(C3=O)[C@@H](Cc3ccc(C)cc3)C(=O)N(C)CC(=O)N[C@@H](CCc3ccc(C(F)(F)F)c(OC)c3)C(=O)N2C1 [PP2168],NRAS/KRAS (ratio of KD value with respect to NRAS to KD value with respect to KRAS),[1],A (a compound having 10 or more and less than 20 is denoted as A)
same,HRAS/KRAS (ratio of KD value with respect to HRAS to KD value with respect to KRAS),[2],A (a compound having 10 or more and less than 20 is denoted as A)
CCO[C@@H]1C[C@H]2C(=O)NC3(CCCC3)C(=O)N(C)[C@@H](C3CCCC3)C(=O)N(C)[C@H](C(=O)N3CCOCC3)CC(=O)N(C)[C@@H](CC)C(=O)N[C@@H]([C@@H](C)CC)C(=O)N(C)CC(=O)N(C)[C@H]3C[C@@H](C)CCN(C3=O)[C@@H](Cc3ccc(C(F)(F)F)cc3)C(=O)N(C)CC(=O)N[C@@H](CCc3cc(F)c(C(F)(F)F)c(F)c3)C(=O)N2C1 [PP1029],NRAS/KRAS (ratio of KD value with respect to NRAS to KD value with respect to KRAS),[1]; KD ratio,C (A compound having a KD ratio of 0.1 or more and less than 3 is denoted as C)
same,HRAS/KRAS (ratio of KD value with respect to HRAS to KD value with respect to KRAS),[2]; KD ratio,B (a compound having 3 or more and less than 10 is denoted as B)
CCO[C@@H]1C[C@H]2C(=O)NC3(CCC3)C(=O)N(C)[C@@H](C3CCCC3)C(=O)N(C)[C@H](C(=O)N(C)CCOC)CC(=O)N(C)[C@@H](CC(F)F)C(=O)N[C@@H]([C@@H](C)CC)C(=O)N(C)CC(=O)N(C)[C@H]3C/C=C\CCN(C3=O)[C@@H](Cc3ccc(C(F)(F)F)cc3)C(=O)N(C)CC(=O)N[C@@H](CCc3cc(F)c(C(F)(F)F)c(F)c3)C(=O)N2C1 [PP1320],NRAS/KRAS (ratio of KD value for GDP-bound NRAS wild-type protein to KD value for KRAS),[1]; KD ratio class,A (a compound having 10 or more and less than 20 is denoted as A)
same,HRAS/KRAS (ratio of KD value for GDP-bound HRAS wild-type protein to KD value for KRAS),[2]; KD ratio class,A (a compound having 10 or more and less than 20 is denoted as A)
